Measured values published in patent US20200368174A1, “PARTICLES FOR TARGETED DELIVERY OF ACTIVE AGENTS INTO ADIPOSE STROMAL CELLS” (Texas Tech University System, priority 2018, published 2020).
Values belong to the molecule of their own block, whether it stands above or below them. Where no end group is shown, it is not given here. Side-chain parts run from the residue outwards. The star is where a group is joined. DSPE = CCCCCCCCCCCCCCCCCC(=O)OC[C@H](COP(=O)(O)OCCN*)OC(=O)CCCCCCCCCCCCCCCCC; MAL = maleimide

Columns and labels:
[1] = Aqueous solubility, 1 mg R in 1 mL 1×PBS; type: physicochemical; details: visual observation
[2] = Chemical stability of R by HPLC under light or dark; type: physicochemical
[3] = In vitro release, dialysis method (Example 1); type: physicochemical; details: for R released from dialysis bag: bag containing 0.5 mg R
Procedure: The dissolution medium was composed of 1×PBS and methanol (80:20, v/v). […] See Sun et al., Colloids Surf B Biointerfaces, 113 (2014) 15-24.
The release study was conducted in the dark to prevent light-induced R degradation. To minimize the effect of R stability, the dissolution medium was changed completely each hour for the first 2 hr, and every 2 hr for the rest 8 hr.

[4] = system: 3T3-L1 white adipocytes; assay: Browning: marker mRNA by Real Time-PCR in differentiating adipocytes, basal or ISO-stimulated; type: cell-based, Murine
Procedure: The cells were then stimulated with isoproterenol (ISO) for 6 hr. Relative mRNA expression of Uncoupling protein 1 (UCP-1), PPARγ, PPARγ co-activator 1α (PGC-1α), and PR-domain-containing 16 (PRDM16) were analyzed by semi-quantitative Real Time-PCR. Data=mean±SEM (n=3). E, Ethanol containing vehicle control for native R. R, rosiglitazone, a positive control. Letters of a-c or a′-c′ on top of the bars define differences among various forms of R under either basal or ISO-stimulated conditions, respectively. Different letters indicate significant differences among various R. *, p<0.05; **, p<0.01; ***, p<0.001 compared to their controls.
The cells were then stimulated with ISO for 6 hr. Relative mRNA expression of white marker insulin-like growth factor-binding protein 3 (IGFBP3) (FIG. 9A) and beige marker CD137 and transmembrane protein 26 (Tmem26) (FIG. 9B) were analyzed by semi-quantitative reverse transcription polymerase chain reaction (RT-PCR). Data=mean±SEM (n=3). E, Ethanol containing vehicle control for native R. R, rosiglitazone, a positive control. Letters of a-c or a′-c′ on top of the bars define differences among various forms of R under both basal and ISO-stimulated conditions, respectively. Different letters indicate significant differences among various R. *, p<0.05; **, p<0.01 compared to the controls.
Total RNA was extracted, cDNA was synthesized, and real-time PCR was performed using an ABI 7300HT instrument.
The hallmark of beige adipocytes is induced thermogenesis in response to stimuli, such as […] agonist ISO.

[5] = In vitro release, dialysis method (Example 2); type: physicochemical
Procedure: The mean particle size, PI and zeta potential were measured every day. The in vitro release behavior was measured in the dissolution medium, which was composed of 1× phosphate buffer saline (1×PBS, pH 7.4) and methanol (80:20, v/v), using a dialysis method. […] R released into the medium at each time point was determined using the Shimadzu high-performance liquid chromatography (HPLC) system (Shimadzu Corporation, Kyoto, Japan).

[6] = system: obese C57BL/6J mice; assay: Anti-obesity study: body weight, composition, food intake, fat pads, adipocyte size; type: in vivo
Procedure: (§1) Sixty male 6-week old C57BL/6J mice from Jackson's lab were fed with a high-fat diet (HFD) (45% energy from fat, Research Diets, Inc, D12451) for 9 weeks starting from week 1 (age 7 weeks old) to week 9 (age 15 weeks old). The mice were allowed to drink and eat the HFD ad libitum and maintained at 22-24° C., 45% relative humidity and a daily 12/12 hour light/dark cycle. […] Treatments were intravenously injected into mice via tail veins twice a week. Food intake and body weight were recorded weekly. Glucose tolerance test (GTT) was conducted at week 8 and the insulin tolerance test (ITT) and cold tolerance test were conducted at week 9.
After 9 weeks, mice were fasted overnight and humanely sacrificed. Blood was collected from the abdominal vein and brain, liver, lung, spleen, kidneys, skeletal muscle, gonadal white adipose tissue (G-WAT), inguinal WAT (I-WAT), retroperitoneal WAT (RP-WAT), and BAT of each mouse. Each tissue was cut into 3 pieces to be immediately frozen in liquid nitrogen followed by storage at −80° C. and fixed in 4% paraformaldehyde (for histology).
Body composition of mice was performed at week 0, 2, 4 and 5 of treatments using an EchoMRI™ Whole Body Composition Analyzer (MRI system) (EchoMRI LLC, Houston, Tex., USA).
H&E staining of I-WAT was conducted by the Department of Pathology of Texas Tech University Health Sciences Center. Briefly, the paraffin-embedded I-WAT sections (5 μm) were deparaffinized and rehydrated with xylene and ethanol. Sections were cleaned with water to skim reagent residue. Excess water was then blotted, the sections were incubated with Hematoxylin for 4 minutes, and washed several times using water. The sections were stained with Eosin and dehydrated. Finally, the sections were cleaned and covered with xylene-based mounting medium.

[7] = system: obese C57BL/6J mice; assay: Fasting insulin, glucose, HOMA-IR, leptin, GTT and ITT; details: mouse, in vivo
Procedure: as §1
GTT and ITT were performed at end of treatments to assess whole-body glucose and insulin tolerance. […] Blood was collected and blood glucose concentrations were measured with a One Touch® glucometer from tail vein blood at 0, 15, 30, 60, 90, and 120 minutes post-injection. […] Blood glucose concentrations were measured as above at 0, 15, 30, 45, and 60 minutes post-injection. The area under the curve (AUC) was calculated. Blood glucose concentrations were plotted against time and the area under curve was calculated by following formula: […]
Fasting plasma glucose concentrations were measured by One Touch® glucometer. Fasting insulin concentrations were determined by an insulin Millipore® ELISA commercial kit (Millipore, Billerica, Mass., USA). […]

[8] = cited from earlier work
[9] = system: primary stromal stem/progenitor cells derived from inguinal WAT (iWAT); details: 10 μM, brown-like differentiation; cited from earlier work
[10] = target: decorin lacking the glycanation site (ΔDCN), on ΔDCN-transduced 3T3-L1 cells (ΔDCN cells); assay: cell-based or functional assay
[11] = target: endogenous surface ΔDCN receptor of mouse adipose stromal cells (ASC) in C57BL/6J white adipose tissue stromal vascular cells (mouse); assay: cell-based or functional assay
[12] = target: decorin lacking the glycanation site (ΔDCN), on ΔDCN-transduced 3T3-L1 cells (ΔDCN cells); assay: flow cytometry of ΔDCN cells incubated 2 h at 37° C. with DiD-labelled nanoparticles

dissolution of 1 mg in 1 mL of 1×PBS [1]: hardly dissolved
R degradation rate ([2]; 4° C., dark, 7 days): 17%
R degradation rate ([2]; 22° C., dark, 7 days): 48%
R degradation rate ([2]; 37° C., dark, 7 days): 52%
R degradation rate ([2]; 37° C., under the light, 6 days): 90%
R degraded ([2]; pH 7.4, 4° C., under the light, 7 days): 40%
R degraded ([2]; pH 7.4, 22° C., under the light, 7 days): 60%
R degraded ([2]; pH 7.4, 37° C., under the light, 7 days): 96%
release behavior ([3]; 1×PBS:methanol 80:20, dark): burst release
R released from dialysis bag ([3]; 2-4 hr period): about 0.02 mg
accumulative released R mass ([3]; 10 hr period): reached a plateau
R released from dialysis bag ([3]; after 1 hr): about 0.17 mg
R release ([5]; after eight hours): undetected
R released from dialysis bag ([5]; first two hours): more than 0.13 mg
released R as share of total R ([5]; first two hours): around 35%
mass of R released at every time point ([5]; following six hours): lower than 0.02 mg
Molecule: Oc1ccc(/C=C/c2cc(O)cc(O)c2)cc1 [native R, 3,5,4′-trihydroxy-trans-stilbene]
Cox4a mRNA ([4]; 20 μM, ISO stimulated): increased
CD137 mRNA expression ([4]; ISO stimulated conditions): dose-dependently increased
Tmem26 expression ([4]; ISO stimulation): increased
PRDM16 mRNA expression ([4]; basal conditions): did not change
Tmem26 mRNA expression ([4]; basal conditions): decreased
IGFBP3 mRNA expression compared to controls ([4]; both basal and ISO stimulated conditions): dose-dependently decreased
diameter of adipocytes in I-WAT ([6]; H&E sections, after 5 weeks): around 100 μm
body weight ([6]; HFD mice, 15 mg/kg, IV twice a week, 5 weeks, vs saline): no significant reduction
percentage of body fat (% body fat) ([6]; HFD mice, 15 mg/kg, IV twice a week, 5 weeks, vs saline, listed as Free R, 15 mg/kg): slightly lower
percentage of body fat (% body fat) ([6]; HFD mice, 15 mg/kg, IV twice a week, 5 weeks, vs saline, listed as free R, 15 mg/kg): no significant reduction
body weight gain ([6]; compared with saline group): decrease
adipocyte size / area of cells in I-WAT ([6]; vs saline): no significant reduction
fasting blood insulin and glucose concentrations compared to saline [7]: reduced
solubility of R in water and physiological fluid [8]: less than 0.1 mg/mL
mRNA expression of UCP1 and beige marker CD137 and Tmem26 [9]: enhanced

ΔDCN cells R content at 4° C. for 4 hours, against free R and Rnano [10]: 2 fold
DiD+ ASC after intravenous injection, DiD-L-Rnano mouse against DiD-Rnano treatment (flow cytometry; depot not given, I-WAT by context) [11]: 9.3 fold
DiD+ cell ratio among the ASC population after intravenous injection of DiD-L-Rnano (flow cytometry; depot not given, I-WAT by context) [11]: 31.7%
cellular R content of SVCs at 4° C., against free R-treated SVF cells [11]: 2.8 fold
cellular R content of SVCs at 37° C., against free R-treated SVF cells [11]: 2.5 fold
percentage of DiD+ ASC in G-WAT after intravenous injection, DiD-L-Rnano mouse against DiD-Rnano mouse (flow cytometry) [11]: 3.5 fold
percentage of DiD+ ASC in RP-WAT after intravenous injection, DiD-L-Rnano mouse against DiD-Rnano mouse (flow cytometry) [11]: 4.8 fold
fold DiD positive rate of ΔDCN cells against DiD-labeled Rnano [12]: 5 fold
B1: ligand-coated Rnano (L-Rnano): resveratrol-loaded lipid nanoparticle carrying DSPE-PEG5000-peptide, the linear ASC-targeting peptide … (SEQ ID NO: 2), on its … (peptide)
peptide: GSWKYWFGEGGC([MAL-PEG5000-DSPE])
modifications: also: displayed in many copies on lipid nanoparticle, copy number not given here
